In article PMC7363885, “Fluorescent artificial receptor-based membrane assay (FARMA) for spatiotemporally resolved monitoring of biomembrane permeability” (Communications Biology, 2020):
Entries after “also recorded” stand apart in the source; their conditions may differ. Where two headings read alike, the source gives them in different places. Marks after values point to notes of the source that are not given here.

Assays:
[1] = Method: Supplementary Table 3 | Qualitative assessment of membrane permeability for more tha n 90 different organic compoundsa investigated by the FARMA-assay with receptors FAR-1, FAR-2, and FAR-3, and, for comparison, investigations by the dye displacement signal generation strategy with the sensing ensembles (CB8•MV•2,6-ANS, CB8•MV•5HO-Trp, CB7•BE, and CB7•PAL). […]
a See also Fig. 2 in main text for chemical structures. b λexc = 400 nm, λobs = 450 nm. c λexc = 310 nm, λobs = […]
ethanol (10 mM stock). m Emerging excimer band at λobs = 500 nm was monitored. n Control experiment in the absence of host (CB8) was also carried out. o λobs = 500 nm was chosen to by-pass the self-fluorescence

FAR-2 = experiment: Fluorescence titration, FAR•analyte complex formation in homogeneous solution; conditions: 10 mM HEPES buffer (pH 7), 1:1 binding model, error estimate ≤ 20%
Method: (§1) Fluorescence titrations were carried out in aqueous HEPES buffer (10 mM, pH 7, 22 °C) unless stated otherwise. To a solution of the FAR (typically at 10–30 μM) was stepwise added a solution of the analyte (typically up to 2 mM) and the fluorescence spectra were recorded. The normalized emissions at 450 nm (FAR-1) or at 370 nm (FAR-2) were fitted with an equation for a 1 : 1 binding by a least-square fit. The resulting affinity constants are reported in Supplementary Table 1. Representative titration plots are shown in Supplementary Fig. 1.

[2] = Dye displacement membrane assay (liposome-encapsulated host•dye ensembles)
Excerpt: Supplementary Figure 13 | Graphical representation of membrane assays using dye displacement for signaling. Diffusion of analytes through a lipid membrane is detected by displacement of the dye from (a) a host•dye or (b) a host•dye•quencher complex, leading to reduction or enhancement in emission intensity.
Supplementary Figure 14 | Membrane permeation monitoring of analytes by dye displacement. (a) Time-resolved changes in fluorescence intensity of CB7•BE-loaded liposomes (λexc = 347 nm, λobs = 500 nm) upon addition of the membrane-permeable analyte tyramine and membrane destabilizing peptide melittin.
(b) Evolution of fluorescence intensity after addition of dimethylbenzylamine (DMBA) to CB7•PAL-loaded liposomes (λexc = 347 nm, λobs = 500 nm). (c) Fluorescence response after addition of the […]
tryptophan to liposomes loaded with CB8•MV•2,6-ANS (λexc = 380 nm, λobs = 463 nm). […]
Combing equations S1 and S2, one arrives at Papp = kp∙(r/3) = kobs/canalyte∙cFAR∙(r/3) (equation 1 in main text)
Dye displacement membrane assay
Dye displacement membrane assays rely on selective encapsulation of reporter pairs inside liposomes and the reversible interaction between the receptor and the translocated analyte. To conduct the assay, liposomes containing the chemosensing ensemble composed of a macrocyclic host and a dye are prepared and purified, such that a subsequently added analyte affects the dye fluorescence only if it can enter the vesicle and displaces the dye from the macrocycle. Until now, only the dye displacement has been used as the signaling mechanism for tandem membrane assays,3, 4 whereby the competitive displacement of the dye from such host•dye complexes upon analyte addition restores the fluorescence features of the dye in solution, Supplementary Figures 13 - 14.
Specifically, this signaling mechanism has been mostly employed with macrocyclic host s with cavity space that is capable o f forming 1:1 complex es, e.g., cucurbit[7]uril (CB7) and the dyes berberine (BER) or palmatine (PAL), see Supplementary Figure 13a, or with p-sulfonato calix[4]arene (CX4) and lucigenin.3,4 Expanding the repertoire of chemosensors for tandem membrane assay s, we exploit herein also the ability of a larger macrocyclic host such as cucurbit[8]uril (CB8) to form 1:1:1 ternary complexes,5-7 and utilize here the quencher methyl viologen (MV) in combination with the fluorescent dyes 5-hydroxy tryptophan (5HO-Trp), 2-anilinonaphthalene -6-sulfonic acid (2,6-ANS) or dapoxyl sulfonic acid, sodium salt (DapoxS), Supplementary Figure 13b. Upon addition of an analyte, the fluorescent dye, the quencher or both the fluorescent dye and quencher are displaced from the CB8 cavity, which in each case is reflected by an increase in the emission intensity of the dye (switch -on displacement assay), Supplementary Figures 14- […]
The dye displacement signal strategy has two important disadvantages compared to the preferred fluorescent artificial receptor (FAR) assays:
(i) The dye displacement strategy is limited to strongly binding analytes, i.e., K(analyte) ≥ K(dye), otherwise a large excess concentration of analyte is needed to generate significant

in vitro = experiment: in vitro
Excerpt: Elementary physical parameters, such as permeability coefficients, can be extracted from the full kinetic FARMA data. This kinetic profile → parameter mapping requires some assumptions to be made in regard to the permeation mechanism. We applied a reported permeation model for liposomes[31] to arrive at permeation rate constants (kp) and apparent permeability coefficients (Papp). The derivation of the mathematical relation (1), linking the fundamental permeability rate constant and permeability coefficient to experimental measurable kobs rate constants, the known total analyte and total FAR concentration, and the experimentally determined liposome radius (r), is shown in the Supplementary Information.1 Papp=kp⋅r/3=kobs/canalyte⋅cFAR⋅r/3 […]
The volume-to-surface correction factor r/3 accounts for the fact that the observed rates depend on the size, i.e., radius r, of the liposomal assembly. […] The initial-rate method can also be applied, see the Supplementary Information. Moreover, kobs/canalyte can be estimated by single-point measurements at selected canalyte concentration.
A solution of 2.5 mg/mL of POPC and 0.33 mg/mL of POPS in chloroform was purged with nitrogen and dried overnight under […] vacuum. […] The resulting FAR-loaded liposomes were separated from non-encapsulated species by size-exclusion chromatography (NAP-25 column), while maintaining the same buffer. The absence of non-encapsulated FAR was confirmed by adding a non-membrane-permeable species such as tryptophan to a fluorescence cuvette containing 25 µL of liposomes diluted in 1 mL HEPES (10 mM) buffer. Complete removal of non-encapsulated FAR is indicated by the absence of a significant fluorescence change upon Trp addition.
In a typical experiment, 20 µL of liposome solution loaded with FAR was diluted in 1 mL HEPES buffer (10 mM, pH 7.0) in a 1 mL quartz cuvette. An emission spectrum was recorded after 10 min of “equilibration time” on a Varian Eclipse spectrofluorometer thermostated at 22 °C with a water bath using λexc = 400 nm for FAR-1, λexc = 310 nm for FAR-2, and λexc = 330 nm for FAR-3. In the time-resolved experiments, the emission intensity at λobs = 450 nm for FAR-1, λobs = 370 nm for FAR-2, and λobs = 370 and 500 nm for FAR-3 (the latter is the emerging excimer band for certain FAR-3•analyte complexes) was recorded with an averaging time of 0.5 s. […] For single-point experiments, a full spectrum was recorded after a fixed time or several time intervals after analyte addition. […] Only FAR-analyte combinations were used for FARMA, for which no significant autofluorescence and competitive light absorption of the analyte occurred.
For each experiment, measurements from 6 injections were accumulated and the average of these traces was used for data analysis.
Calculation of the unimolecular permeation rate constants ( kp) and of the apparent permeability coefficients (Papp).
The passive diffusion (permeation) of small non-charged compounds follows a modified Fick’s law and can be expressed by a first order kinetics.1 Similar to first order chemical reactions, the kinetics curve can therefore be fitted monoexponentially to obtained the observed permeation rates (kobs). In our assay set-up, such an exponential fit is an approximation, since it neglects that a certain fraction of transported analyte is bound to the FAR and cannot exit the liposome. Nevertheless, the fit of the kinetic curves of the […]
approximation is justified.

FAR-1 = experiment: Fluorescence titration, FAR•analyte complex formation in homogeneous solution; assay type: binding
Method: as §1, with “Fig. 1. Note that the high CB8-dye binding affinities correspond to a near quantitative degree of host-dye complexation, i.e., quantitative formation of the FAR, such that the subsequent binding of the analyte can be treated independently.” for “Fig. 1.”

[3] = PAMPA; cited from earlier work
[4] = 298 K; cited from earlier work
Caco-2 = conditions: cited from earlier work
[5] = Aliquot analysis/flat lipid bilayer (macroscopic bilayer of brain phospholipids); cited from earlier work
[6] = monoexponential fit, analyte 40 µM (bulk), FAR-2 ca. 500 µM in the liposome interior, 20% error
[7] = FAR-1, 10 mM HEPES buffer (pH 7), 1:1 binding model, error estimate ≤ 20%
[8] = FARMA with FAR-loaded liposomes or GUVs
[9] = dye displacement, CB7•BE-, CB8•MV•5OH-Trp- or CB8•MV•2,6-ANS-loaded liposomes

Clc1ccccc1Cl [1,2-dichlorobenzene]
Qualitative assessment of membrane permeability [1]: +

Oc1ccc(O)cc1 [1,4-dihydroxybenzene]
Ka (FAR-2): 2.9 10^3 M−1

O=C(O)C1C2CC3CC(C2)CC1C3 (stereo not drawn) [2-adamantyl-carboxylate]
membrane permeability (in words) [2]: membrane-permeable, albeit at a slower rate

Oc1ccc2ccccc2c1 [2-naphthol]
Qualitative assessment of membrane permeability [1]: +
membrane permeability (in words) (in vitro): permeable

N#Cc1ccccc1O [2CN-phenol, 2-cyanophenol]
Ka (FAR-2): 5.8 10^3 M−1
kobs (in vitro; [6]): 10 s–1
kobs (in vitro; source data of Fig. 5): 10
log(kobs) (in vitro; source data of Fig. 5): 1

CCOc1ccc(O)cc1 [4-ethoxyphenol]
Ka (FAR-2): 1.0 10^3 M−1
Ka (FAR-1; [7]): 1 10^3 M−1

COc1ccc(O)cc1 [4-methoxyphenol]
Ka (FAR-2): 2.4 10^3 M−1

N#Cc1ccc(O)cc1 [4CN-phenol, 4-cyanophenol]
Ka (FAR-2): 5.2 10^3 M−1
Papp Literature [3]: 17 10^−6 cm s^−1
Qualitative assessment of membrane permeability [1]: +
kobs (in vitro; not told, pH 7): 40
log(kobs) (in vitro; not told, pH 7): 1.602

Nc1ccccc1 [Aniline, aniline]
Ka (FAR-2): 25 10^3 M−1
Papp Literature [3]: 76 10^−6 cm s^−1
Ka (FAR-1; [7]): 33 10^3 M−1
kobs (in vitro; [6]): 7.5 s–1
kp (in vitro; not told, pH 7): 9400^f
kobs (in vitro; source data of Fig. 5): 7.5
log(kobs) (in vitro; source data of Fig. 5): 0.8751

COc1ccc2cc3[n+](cc2c1OC)CCc1cc2c(cc1-3)OCO2 [BER, berberine]
dissociation rate from CB7 [4]: 0.8 s⁻¹

c1ccc2[nH]ccc2c1 [Indole, indole]
Papp Literature (Caco-2): 57 10^−6 cm s^−1
Papp Literature [5]: 250 10^−6 cm s^−1
membrane permeability (in words) (in vitro; [8]): instantaneous; also recorded: permeating
kobs (in vitro; [6]): 1.8 s–1
kp (in vitro; not told, pH 7): 3200
kobs (in vitro; source data of Fig. 5): 1.8
log(kobs) (in vitro; source data of Fig. 5): 0.2553

CC12CC3CC(C)(C1)CC(N)(C3)C2 [Memantine, 3,5-dimethyladamantan-1-amine, reference compound]
Papp Literature (Caco-2): 43 10^−6 cm s^−1
Papp (in vitro; not told, pH 7): 24 ×10⁻⁶ cm/s

N[C@@H](Cc1ccccc1)C(=O)O [Phe, phenylalanine]
Ka (FAR-1; [7]): 5 10^3 M−1
membrane permeability (in words) [2, 9]: membrane impermeable

Oc1ccccc1 [Phenol, phenol]
Papp Literature [3]: 47
Ka (FAR-1; pH 7): 56
Papp (in vitro; not told, pH 7): 112 ×10⁻⁶ cm/s
kobs (in vitro; not told, pH 7): 2.7 s–1
log(kobs) (in vitro; not told, pH 7): 0.4314
time of FARMA signal response (t) (in vitro; not told, pH 7): < 5 s

CNC(=C[N+](=O)[O-])NCCSCc1ccc(CN(C)C)o1 [Ranitidine, ranitidine, reference compound]
Papp Literature [3]: 0.88 10^−6 cm s^−1
Ka (FAR-1; [7]): 2 10^3 M−1
Papp Literature (Caco-2; no passive permeation but active transport): 0.49 10^−6 cm s^−1
Papp at 100 µM (in vitro; not told, pH 7): 0.013 ×10⁻⁶ cm/s

NC(=O)C(N)Cc1c[nH]c2ccccc12 (stereo not drawn) [TrpNH2, tryptophanamide]
Papp Literature [3]: 2.7 10^−6 cm s^−1
Ka (FAR-1; [7]): 460 10^3 M−1

NCCCCCN [cadaverine]
membrane permeability (in words) [2, 9]: membrane impermeable

COc1ccc(B(O)O)cc1 [p-anisylboronic acid]
Ka (FAR-2): 4.8 10^3 M−1

Cc1ccc(C)cc1 [p-xylene, 1,4-dimethylbenzene]
Qualitative assessment of membrane permeability [1]: +
kobs (in vitro; [6]): 17 s–1
kobs (in vitro; source data of Fig. 5): 17
log(kobs) (in vitro; source data of Fig. 5): 1.23

CC(C)NCC(O)COc1cccc2ccccc12 (stereo not drawn) [propranolol, reference compound]
Ka (FAR-1; [7]): 3 10^3 M−1
membrane permeability (in words) [2, 9]: membrane permeable

O=C([O-])c1ccccc1.[Na+] [sodium benzoate]
Ka (FAR-2): < 1 10^3 M−1

NCCCNCCCCNCCCN [spermine]
membrane permeability (in words) [2, 9]: membrane impermeable

NCCc1ccc(O)cc1 [tyramine]
membrane permeability (in words) [2, 9]: membrane-permeable
membrane permeability (in words) (in vitro; [8]): pass the membrane within several minutes to hours
